Where a SMILES comes first, the peptide text is derived from it. Bridges are numbered along the chain shown (N, C = ends).
Columns and labels:
[1] = Single-dose i.v. bolus PK study in mice; assay type: in vivo, CD-1 mice
Protocol: Mouse studies: All procedures and protocols involving the use of animals were reviewed and approved by the University of Southern California (USC) IACUC (protocol #20538). Briefly, male (31.7-37.7 g) and female (25.2-35.6 g) CD-1 mice (Charles River Laboratories) were administered a single 5 mg/kg i.v. bolus injection of Peptide 1 (SEQ ID NO. 1) into the lateral tail vein. A total of 24 mice were separated into six groups (n=2/sex/group), with each group assigned to a single, pre-determined time point. Blood samples were collected at 0.25, 1, 2, 4, 8, and 24 h post-dose via terminal cardiac puncture. The collected samples were centrifuged to separate the plasma and stored at −80° C. until analysis.
Bioanalytical analysis: Clarified plasma samples from mice were directly diluted into 5% formic acid/5% acetonitrile. Quantitative analysis of Peptide 1 (SEQ ID NO. 1) was performed by LC-MS/MS with reverse-phase liquid chromatography (XBridge™ BEH phenyl 3.5 μm 3×100 mm column, Waters #186003328) on an Acquity™ H-Class UPLC (Waters) coupled to a Xevo™ TQ-S tandem electrospray mass spectrometry running MassLynx™ V4.1 (Waters). Quantitative mass spectroscopy was performed by multiple-reaction monitoring transition 417.32>517.21, with the area under the curve determined by TargetLynx™ (Waters). A synthetic theta defensin-like peptide was used as an internal standard (IS). The lower limit of quantification (LLOQ) of the assay was 1 ng/mL. Intra- and inter-assay precision (percent coefficient of variation [CV]) was ≤3%, and intra and interassay accuracy (% relative error) was ≤5%. Plasma Peptide 1 (SEQ ID NO. 1) concentration analyses for rats and cynomolgus monkey studies were performed at MicroConstants (San Diego, CA) by HPLC using a Mac-Mod™ Analytical ACE C4 column. The mobile phase was nebulized using heated nitrogen in Z-Spray source/interface set to electrospray positive ionization mode, and the compound was detected using MS/MS (LLOQ=10.0 ng/mL). Details of the method are summarized in the MicroConstants method No. MN20038. Clarified plasma samples from a serially sampled vervet were quantified by ultra-performance liquid chromatography Waters Acquity H-Class UPLC. […] Peptide 1 (SEQ ID NO. 1) peak and mass confirmation was performed on post PDA eluent using a Micromass Quattro Ultima™ mass spectrometer with MassLynx™ 4.1 (Waters). The lower limit of quantitation (LLOQ) ranged from 10-30 ng/mL (determined by sample background) to an upper limit of 50 ug/mL. RTD-2 (10 ug/mL) was used as an internal standard. Intra- and interassay precision (% coefficient of variation [CV]) was ≤3%, and intra and interassay accuracy (% relative error) was ≤5%.
Pharmacokinetic analysis: Non-compartmental analysis (NCA) was performed using Phoenix WinNonlin™ (version 8.3.1, Certara USA, Inc.; Princeton NJ) to determine the PK parameters in mice, rats, cynomolgus monkeys, and the vervet. Nominal sampling times were used in the analysis, and data below the lower limit of quantification of the assay were excluded from the analysis. The maximum plasma concentration (Cmax) was determined from visual inspection of the data. In addition, the following parameters were calculated: terminal elimination rate constant (λz), area under the curve extrapolated to infinity (AUC0-∞), area under the curve to dosing interval (AUCτ), mean residence time (MRT), clearance (CL), and volume of distribution at steady state (Vss). AUC was calculated using the linear up, log down method, and the λz was calculated using up to the last four data points of the log-linear terminal phase of the concentration-time profile. Due to sparsely sampled data in mice and rats, the sparse sampling calculation methodology in Phoenix WinNonlin™ was used, which generated a single estimate without standard error for all parameters, except for Cmax. For rats and cynomolgus monkeys, all parameters were calculated using sampling times relative to the beginning of the i.v. infusion.

in vivo = conditions: both, cynomolgus monkey; for AUC(0-inf) / AUC / clearance / Cmax / MRT inf / Vd: iv, cynomolgus; for AUC(0-inf): AUC0-∞; for AUC: AUCτ; for clearance: CL; for MRT inf: MRTinf; for Vd: Vss
[2] = both sexes, CD-1, mouse, plasma, iv, single 5 mg/kg i.v. bolus
[3] = 0.3 mg/kg, 0.3 mg/kg i.v., Day 1, mean
[4] = 1 mg/kg, 1 mg/kg i.v., Day 1, mean
[5] = 3 mg/kg, 3 mg/kg i.v., Day 1, mean
[6] = 5 mg/kg, 5 mg/kg i.v., Day 1, mean
[7] = 5 mg/kg/day, 5 mg/kg/day i.v., Day 10, mean
[8] = 10 mg/kg, 10 mg/kg i.v., Day 1, mean
[9] = 10 mg/kg/day, 10 mg/kg/day i.v., Day 10, mean
[10] = 15 mg/kg, 15 mg/kg i.v., Day 1, mean
[11] = 15 mg/kg/day, 15 mg/kg/day i.v., Day 4, mean
[12] = 15 mg/kg/day, 15 mg/kg/day i.v., Day 7, mean
[13] = 15 mg/kg/day, 15 mg/kg/day i.v., Day 10, mean

CC[C@H](C)[C@@H]1NC(=O)[C@@H]2CSSC[C@H](NC(=O)[C@H](CCCNC(=N)N)NC(=O)[C@@H]3CSSC[C@H](NC1=O)C(=O)N[C@@H]([C@@H](C)O)C(=O)N[C@@H](CCCNC(=N)N)C(=O)NCC(=O)N[C@@H](Cc1ccccc1)C(=O)N3)C(=O)N[C@@H](CC(C)C)C(=O)N[C@H]1CSSC[C@H](NC(=O)[C@H](C(C)C)NC(=O)CNC(=O)[C@H](CCCNC(=N)N)NC(=O)[C@H](CCCNC(=N)N)NC1=O)C(=O)N[C@@H](CCCNC(=N)N)C(=O)N2 [Peptide 1] (cyclo(GFCRCLCRRGVCRCICTR); disulfide 3-16, 5-14, 7-12)
AUC [1, 2]: 12300 ng·h/mL | AUC(0-inf) [1, 2]: 12500 ng·h/mL | MRT [1, 2]: 2.62 h | clearance [1, 2]: 6.67 mL/min/kg | Cmax ([1]; both sexes, CD-1, mouse, plasma, iv, single 5 mg/kg i.v. bolus, estimate (SE)): 8920 ng/mL | Vd ([1]; both sexes, CD-1, mouse, plasma, iv, single 5 mg/kg i.v. bolus, read-out: Vss): 1.05 L/kg | λz ([1]; single 5 mg/kg i.v. bolus): 0.114 h⁻¹ | elimination phase half-life ([1]; single i.v. bolus): 6.05 h | half-life (in vivo): 9.53 h | half-life (in vivo; 15 mg/kg): 47.2 h | AUC(0-inf) (in vivo; [3]): 617 ng·h/mL | AUC (in vivo; [3]): 591 ng·h/mL | clearance (in vivo; [3]): 8.3 mL/min/kg | Cmax (in vivo; [3]): 582 ng/mL | MRT inf (in vivo; [3]): 1.24 h | Vd (in vivo; [3]): 0.626 L/kg | AUC(0-inf) (in vivo; [4]): 3880 ng·h/mL | AUC (in vivo; [4]): 3820 ng·h/mL | clearance (in vivo; [4]): 4.43 mL/min/kg | Cmax (in vivo; [4]): 2560 ng/mL | MRT inf (in vivo; [4]): 1.82 h | Vd (in vivo; [4]): 0.486 L/kg | AUC(0-inf) (in vivo; [5]): 10700 ng·h/mL | AUC (in vivo; [5]): 10300 ng·h/mL | clearance (in vivo; [5]): 4.78 mL/min/kg | Cmax (in vivo; [5]): 4750 ng/mL | MRT inf (in vivo; [5]): 4.3 h | Vd (in vivo; [5]): 1.22 L/kg | AUC(0-inf) (in vivo; [6]): 27200 ng·h/mL | AUC (in vivo; [6]): 27200 ng·h/mL | clearance (in vivo; [6]): 3.13 mL/min/kg | Cmax (in vivo; [6]): 10700 ng/mL | MRT inf (in vivo; [6]): 2.94 h | Vd (in vivo; [6]): 0.55 L/kg | AUC(0-inf) (in vivo; [7]): 40000 ng·h/mL | AUC (in vivo; [7]): 38900 ng·h/mL | clearance (in vivo; [7]): 2.27 mL/min/kg | Cmax (in vivo; [7]): 11700 ng/mL | MRT inf (in vivo; [7]): 4.84 h | Vd (in vivo; [7]): 0.645 L/kg | AUC(0-inf) (in vivo; [8]): 76800 ng·h/mL | AUC (in vivo; [8]): 76100 ng·h/mL | clearance (in vivo; [8]): 2.38 mL/min/kg | Cmax (in vivo; [8]): 26700 ng/mL | MRT inf (in vivo; [8]): 4.4 h | Vd (in vivo; [8]): 0.629 L/kg | AUC(0-inf) (in vivo; [9]): 125000 ng·h/mL | AUC (in vivo; [9]): 118000 ng·h/mL | clearance (in vivo; [9]): 1.48 mL/min/kg | Cmax (in vivo; [9]): 27300 ng/mL | MRT inf (in vivo; [9]): 7.2 h | Vd (in vivo; [9]): 0.624 L/kg | AUC(0-inf) (in vivo; [10]): 142000 ng·h/mL | AUC (in vivo; [10]): 138000 ng·h/mL | clearance (in vivo; [10]): 1.9 mL/min/kg | Cmax (in vivo; [10]): 46500 ng/mL | MRT inf (in vivo; [10]): 5.48 h | Vd (in vivo; [10]): 0.629 L/kg | AUC(0-inf) (in vivo; [11]): 167000 ng·h/mL | AUC(0-inf) (in vivo; [12]): 188000 ng·h/mL | AUC(0-inf) (in vivo; [13]): 213000 ng·h/mL | AUC (in vivo; [11]): 140000 ng·h/mL | AUC (in vivo; [12]): 154000 ng·h/mL | AUC (in vivo; [13]): 173000 ng·h/mL | clearance (in vivo; [11]): 1.78 mL/min/kg | clearance (in vivo; [12]): 1.63 mL/min/kg | clearance (in vivo; [13]): 1.72 mL/min/kg | Cmax (in vivo; [11]): 31100 ng/mL | Cmax (in vivo; [12]): 32800 ng/mL | Cmax (in vivo; [13]): 32200 ng/mL | MRT inf (in vivo; [11]): 11.8 h | MRT inf (in vivo; [12]): 12.3 h | MRT inf (in vivo; [13]): 12 h | Vd (in vivo; [11]): 1.26 L/kg | Vd (in vivo; [12]): 1.19 L/kg | Vd (in vivo; [13]): 1.14 L/kg
